# What was measured:
# [1] = tested on: Akt; test: Akt activity (phospho-Akt) by Western blot in CaCo-2 cells; assay type: cell-based, human
# Experimental: CaCo-2, the carcinoma cell line of human colon cancer, was purchased from American Type Culture Collection (ATCC), and cultured at 37° C. in the presence of 5% CO2 using a DMEM medium containing 10% FCS, 1% NEAA, and 1% P/S (100 units/ml penicillin and 100 μg/ml streptomycin).
# 6×10^5 CaCo-2 cells were inoculated per dish using 6 cm dishes (NUNC), washed twice with phosphate buffered saline (PBS) (-), and then cultured for 24 hours in a serum-free DMEM medium containing 1% NEAA. Subsequently, at a final concentration of 100 μM, homoserine lactone hydrochloride, N-butyryl-L-homoserine lactone, N-(3-oxohexanoyl)-L-homoserine lactone and N-(3-oxododecanoyl)-L-homoserine lactone were each added, and then each solution was allowed to react for 10 minutes. In addition, purified acylated homoserine lactone that was used herein had been dissolved in DMSO in a concentration 400 times higher than the target final concentration, and then subjected to filter sterilization (φ 0.22 μm). DMSO at a final concentration of 0.25% was used as a control. In addition, α-tubulin was used as an internal standard.
# After reaction, the product was washed twice with cold PBS (-), and then frozen at −80° C. The cells were thawed on ice, 200 μl of a lysis buffer (50 mM HEPES, pH7.5, 50 mM NaCl, 1 mM EDTA, 1.5 mM MgCl2, 1% Triton X-100, 10% glycerine, 10 mM sodium pyrophosphate, 1 mM Na3VO4, 100 mM NaF, 1 mM PMSF, 10 μg/ml aprotinin and 10 μg/ml leupeptin) was added, and then the cells were scraped off using a scraper. The cells were allowed to stand on ice for 20 minutes, and then centrifuged at 14,000 rpm at 4° C. for 15 minutes, thereby collecting the supernatant. Concentration of the collected protein was measured, and protein equivalent to 50 μg was subjected to SDS-PAGE. After electrophoresis, the product was blotted on a PVDF membrane. When phospho-Akt was measured, blocking was carried out with 5% skim milk/Tris-buffered saline containing 0.1% Tween 20 (TBS-T), and the anti-phospho-Akt ([…]) antibody and the HRP-labeled anti-rabbit IgG antibody were used as a primary antibody and a secondary antibody, respectively. For α-tubulin used as an internal standard, blocking was carried out with 5% bovine serum albumin (BSA)/TBS-T, and the anti-α-tubulin (Ab-1) and the HRP-labeled anti-mouse IgG antibody were used as a primary antibody and a secondary antibody, respectively. For band detection, Renaissance™ Western Blot Chemiluminescence […] Reagent Plus (NEN) or Western Blotting Luminol Reagent (SANTA CRUZ BIOTECHNOLOGY) was used. […] In addition in the figure that is described below, HSL means homoserine lactone hydrochloride, C4-HSL means N-butyryl-L-homoserine lactone, 3-oxo-C6-HSL means N-(3-oxohexanoyl)-L-homoserine lactone, and 3-oxo-C12-HSL means N-(3-oxododecanoyl)-L-homoserine lactone.
# After cell culture, N-(3-oxododecanoyl)-L-homoserine lactones with final concentrations of 0 μM (0.25% DMSO), 1 μM, 10 μM, 30 μM and 100 μM were each added. Akt activity was analyzed by Western blot in a manner similar to that used in (1), except for carrying out reaction for 10 minutes (FIG. 2).
# After cell culture, N-(3-oxododecanoyl)-L-homoserine lactones with final concentrations of 30 μM and 100 μM were each added. For each case, Akt activity was measured by Western blot in a manner similar to that in (1), except for carrying out stimulation with acylated homoserine lactone in a short time course of 0, 5, 10, 30 and 60 minutes (FIG. 4), and in a long time course of 0, 10 minutes, 60 minutes, 2 hours, 4 hours, 6 hours, 8 hours and 10 hours (FIG. 5). In the case of stimulation at 30 μM, the inhibition of Akt activity peaked at 5 minutes, and lasted until 60 minutes after stimulation, and then returned to the base level within 2 hours. On the other hand, in the case of stimulation at […], the inhibition of Akt activity peaked at 5 minutes and lasted until 6 hours after stimulation. […]
# [2] = tested on: TNF-α; details: mouse macrophage culture system; cited from earlier work
# [3] = tested on: IL-12; details: mouse macrophage culture system; cited from earlier work
# [4] = tested on: IL-8; details: human alveolar cells; cited from earlier work
# [5] = tested on: Akt; test: Akt activity by Western blot in porcine vascular endothelial cells (PECs); assay type: cell-based; details: 100 μM, 10 minutes
# Experimental: Porcine vascular endothelial cells (PECs) were cultured at 37° C. in the presence of 5% CO2 using a DMEM medium containing 10% FCS, 1% NEAA and 1% P/S (100 units/ml penicillin and 100 μg/ml streptomycin).
# 6×10^5 PECs were inoculated per dish using 6 cm dishes (NUNC), washed twice with phosphate buffered saline (PBS) (-), and then cultured for 24 hours in a serum-free DMEM medium containing 1% NEAA. Subsequently, at a final concentration of 100 μM, homoserine lactone hydrochloride, N-butyryl-L-homoserine lactone, N-(3-oxohexanoyl)-L-homoserine lactone and N-(3-oxododecanoyl)-L-homoserine lactone were each added, and then each solution was allowed to react for 10 minutes. Similarly to (1), the effect of acylated homoserine lactone on Akt activity in PECs were examined by Western blotting.
# [6] = tested on: caspase-3; test: Caspase activity by Western blot (cleaved caspase-3) in CaCo-2 cells; assay type: cell-based, human
# Experimental: The activities of caspase (caspase-3 and caspase-9) and PARP (poly-ADP ribose polymerase) were measured in a manner similar to those in Examples 1 and 2 by Western blot analysis using each of anti-activated (cleaved) caspase antibodies, that is, an anti-cleaved caspase-3 antibody, an anti-cleaved caspase-9 antibody (D330) and an anti-cleaved PARP antibody (D214).
# N-(3-oxododecanoyl)-L-homoserine lactones with final concentrations of 30 μM and 100 μM were each added to cultured CaCo-2 cells. Caspase-3, caspase-9 and PARP activities were analyzed over time by Western blot at 0 hours, 1 hour, 2 hours, 4 hours, 6 hours, 8 hours and 10 hours after culture. […] Whereas at 30 μM, activated caspase-3 began to be detected 1 hour after stimulation and the activity lasted until 4 hours after stimulation, at 100 μM the activity peaked at 6 hours and lasted until 10 hours after stimulation. Cleaved caspase-9 and cleaved PARP were detected by reprobing each membrane.
# Next, 3 hours of reaction with N-(3-oxododecanoyl)-L-homoserine lactone was carried out at concentrations of 0, 1, 10, 30, and 100 μM, and then caspase and PARP activities were measured.
smiles,measurement,setting,value
CCCCCCCCCC(=O)CC(=O)N[C@H]1CCOC1=O [N-(3-oxododecanoyl)-L-homoserine lactone],"Akt activity, % of that where no stimulation was provided","[1]; 10 μM, 10 minutes",79%
same,"Akt activity, % of that where no stimulation was provided","[1]; 30 μM, 10 minutes",31%
same,"Akt activity, % of that where no stimulation was provided","[1]; 100 μM, 10 minutes",14%
same,level of phosphorylated Akt,"[1]; 100 μM, 10 minutes",significantly decreased
same,concentration at which levels of phosphorylated Akt significantly decreased,[1]; 10 minutes,≥ 10 µM
same,time at which inhibition of Akt activity peaked,[1]; stimulation at 10 μM,5 min
same,inhibition of Akt activity lasted until (after stimulation),[1]; stimulation at 30 μM,60 min
same,time at which inhibition of Akt activity peaked,[1]; stimulation at 30 μM,5 min
same,time for Akt activity to return to the base level,[1]; stimulation at 30 μM,≤ 2 h
same,inhibition of Akt activity lasted until (after stimulation),[1]; stimulation at 100 μM,360 min
same,time at which inhibition of Akt activity peaked,[1]; stimulation at 100 μM,5 min
same,TNF-α production,[2],promotes
same,IL-12 production,[3],promotes
same,IL-8 production,[4],stimulates
same,Akt activity in PECs,[5],significantly decreases
same,caspase-3 activity lasted until (after stimulation),[6]; 30 μM,4 h
same,time at which activated caspase-3 began to be detected after stimulation,[6]; 30 μM,1 h
same,caspase-3 activity lasted until (after stimulation),[6]; 100 μM,10 h
same,time of peak caspase-3 activity,[6]; 100 μM,6 h
same,concentration at which cleaved caspase (caspase-3) was detected,"[6]; 3 hours of reaction, 0, 1, 10, 30 and 100 μM",≥ 30 µM
